We go through 22 compounds from patent US8703750B2, “Mixtures and methods for the induction of resistance in plants” (priority 2004, dated 2014).

Read-outs that look alike come from different tables or passages of the source.

Data set [1] deals with cultivar Borlotto of Vigevano bean plants. Format: in vivo, bean plant. Also on record: key: 100 = healthy plant, 0 = completely necrotic/decoloured. How it is done: After 7 days in a conditioned environment, the intensity of the necrosis or leaf decolouring is evaluated with an evaluation scale from 100 (healthy plant) to 0 (plant completely infected with necrosis or decoloured).

In a further data set the test system is Plasmopara viticola. To be noted: in vivo. How it is done:
After remaining 7 days in a conditioned environment, the plants were infected on the lower side with an aqueous suspension of Plasmorpara viticola spores (200,000 spores per cm^3).
The plants were kept in a humidity saturated environment, at 21° C., for the incubation period of the fungus and, at the end of this period (7 days), the fungicidal activity is evaluated according to an evaluation percentage scale from 100 (healthy plant) to 0 (completely infected plant).
E is the expected fungicidal activity, in the absence of synergetic effects, from a blend obtained by mixing g.x of the compound X with g.y of the compound Y;
x is the activity of compound X when used alone at a dose of g.x;
y is the activity of compound Y when used alone at a dose of g.y.
When the fungicidal activity found experimentally is greater than the value of E, said activity should be considered as being a synergetic effect.

A further data set relates to Peronospora tabacina. The experiment in a line: Control of Peronospora Tabacina on tobacco in preventive leaf application (greenhouse test). Format: in vivo. As to the method:
After remaining 7 days in a conditioned environment, the plants were infected on the lower side with an aqueous suspension of Peronospora Tabacina spores (200,000 spores per cm^3).
After remaining 24 hours in a humidity saturated environment, at 21° C., the plants were transferred to another conditioned environment for the incubation period of the fungus and, at the end of this period (7 days), the fungicidal activity is evaluated according to an evaluation percentage scale from 100 (healthy plant) to 0 (completely infected plant).

A further data set relates to cultivar Merlot vines. The experiment in a line: Undesired effects (necrosis or leaf decolouring) on vines in the Plasmopara viticola greenhouse test. Particulars: in vivo.
In data set [2] the test system is cultivar Burley tobacco plants. To be noted: in vivo. As to the method:
Leaves of cultivar Burley tobacco plants, grown in vases, in a conditioned environment (20±1° C., 70% relative humidity), were treated by spraying both sides of the leaves with the blends in question dispersed in an aqueous solution containing 0.3% of tween 20.
Undesired effects refer to the appearance of necrosis or leaf decolouring.

Setting [3] is: 125 ppm of each component, 7 days after leaf spraying, bean plant.

Protocol for cultivar Merlot vines: Leaves of cultivar Merlot vines, grown in vases, in a conditioned environment (20±1° C., 70% relative humidity), were treated by spraying both sides of the leaves with the blends in question dispersed in an aqueous solution containing 0.3% of tween 20.

With `CC(N)CC(=O)O` (stereo not drawn) [BABA, β-aminobutyric acid, reference compound], in data set [1] (setting [3]), the Leaf decolouring stood at 15 and the Leaf necrosis stood at 30. On to `[Cu+2].[OH-].[OH-]` [Cu hydroxide, cuprum hydroxyde], for which the “Activity (y)” value with Plasmopara viticola amounted to 34. Take `[Cl-].[Cu+2].[Cu+2].[OH-].[OH-].[OH-]` [Cu oxychloride, cuprum oxychloride]: the “Activity (y)” value in the data set with Plasmopara viticola is listed as 18. Consider `O=S(=O)([O-])[O-].[Cu+2]` [CuSO4, copper sulphate], for which the “Activity (y)” value in the data set on Plasmopara viticola turned out to be 48; in the data set with Peronospora tabacina (in vivo), 45.

In data set [1] (in vivo), `O=C(O)c1ccccc1[O-].O=C(O)c1ccccc1[O-].[Cu+2]` [Cu^2+ SA, copper (II) salt of salicylic acid] returned a Leaf decolouring of 5 and a Leaf necrosis of 55. As to `O=C(O)c1ccccc1[O-].O=C(O)c1ccccc1[O-].[Cu+2]` [Cu^2+SA2, copper (II) salt of salicylic acid], in data set [1] (in vivo), the Leaf decolouring came to 5 and the Leaf necrosis is reported as 42.

As for `O=c1ccc2ccccc2o1` [Cumarine], in the data set with Plasmopara viticola, the “Activity (y)” value is 10. Take `O=c1ccc2cc(O[C@@H]3O[C@H](CO)[C@@H](O)[C@H](O)[C@H]3O)c(O)cc2o1` [Esculine, esculin]: in the data set on Plasmopara viticola, the “Activity (y)” value amounted to 10. Take `O=C([O-])[C@H](O)[C@@H](O)[C@H](O)[C@H](O)CO.O=C([O-])[C@H](O)[C@@H](O)[C@H](O)[C@H](O)CO.[Fe+2]` [Fe (II) gluconate]: the “Activity (y)” value with Plasmopara viticola came to 28. With `[Fe+2].c1ccc2c(c1)-c1nc-2nc2[n-]c(nc3nc(nc4[n-]c(n1)c1ccccc41)-c1ccccc1-3)c1ccccc21` [Fe (II) phthalocyanine, iron phthalocyanine], the “Activity (y)” value in the data set on Plasmopara viticola was 14. For `O=S(=O)([O-])[O-].[Fe+2]` [FeSO4, iron sulphate], the entries for the “Activity (y)” value with Plasmopara viticola and with Peronospora tabacina (in vivo) were 40 and 15, respectively.

In data set [1] (setting [3]), `O=C(O)c1cc(Cl)nc(Cl)c1` [INA, 2,6-dichloroisonicotinic acid, reference compound] gave a Leaf decolouring of 10 and a Leaf necrosis of 50.

Turning to `[C-]#N.[C-]#N.[C-]#N.[C-]#N.[C-]#N.[C-]#N.[C-]#N.[C-]#N.[C-]#N.[C-]#N.[C-]#N.[C-]#N.[C-]#N.[C-]#N.[C-]#N.[C-]#N.[C-]#N.[C-]#N.[Fe+2].[Fe+2].[Fe+2].[Fe+3].[Fe+3].[Fe+3].[Fe+3]` [Prussian blue], the “Activity (y)” value with Plasmopara viticola was 13.

`O=C1NS(=O)(=O)c2ccccc21` [Saccharin, saccharin]: the “Activity (y)” value in the data set on Plasmopara viticola is on record as 30.

Consider `[Cl-].[Cl-].[Cu+2].[Cu+2].[Cu+2].[Cu+2].[OH-].[OH-].[OH-].[OH-].[OH-].[OH-]` [Tetracopper oxychloride], for which, in the data set with Plasmopara viticola, the “Activity (y)” value is 28. For `[O]=[Zn]` [ZnO, zinc oxide], the “Activity (y)” value with Plasmopara viticola amounted to 30; in the data set with Peronospora tabacina (in vivo), 15. For `O=S(=O)([O-])[O-].[Zn+2]` [ZnSO4, zinc sulphate], the “Activity (y)” value in the data set with Plasmopara viticola was found to be 22; with Peronospora tabacina (in vivo), 20. In the case of Fe(III) glutamate, the “Activity (y)” value in the data set on Plasmopara viticola amounted to 16.

For the compound FeNH4SO4, in the data set with Plasmopara viticola, the “Activity (y)” value came to 18. As to “copper phthalocyanine [Cu (II) Phthalocyanine]”, in the data set on Plasmopara viticola, the “Activity (y)” value stood at 10. The “Undesired effects” value with cultivar Merlot vines is on record as 0. silicic acid: in the data set on Plasmopara viticola, the “Activity (y)” value was 14. On to titanium dioxide [TiO2], for which the “Activity (y)” value in the data set on Plasmopara viticola was 24; in the data set on Peronospora tabacina (Table 5, compound alone at dose g.y ppm Equivalent Metal: TiO2 24, FeSO4 28, ZnSO4 33, CuSO4 32, ZnO 33), 5. This compound also gave an Undesired effects in data set [2] of 0.
